pIC50: −log10 of the molar value.
Key:
COX-2 = molecular target: T1, COX-2 (Homo sapiens, UniProt P35354); assay: Whole cell assay for COX-2 using CHO transfected cell line (CHO [hCOX-2]); format: cell-based; set-up: expressed in transfected cells; host or cells: Chinese hamster ovary (CHO) cells, stably transfected, CHO[hCOX-2]; conditions: CHO[hCOX-2] cells, 10 μM AA; read-out: CHO Cox-2 (IC50, inhibition of PGE2 production)
T1 sequence (P35354 18-604): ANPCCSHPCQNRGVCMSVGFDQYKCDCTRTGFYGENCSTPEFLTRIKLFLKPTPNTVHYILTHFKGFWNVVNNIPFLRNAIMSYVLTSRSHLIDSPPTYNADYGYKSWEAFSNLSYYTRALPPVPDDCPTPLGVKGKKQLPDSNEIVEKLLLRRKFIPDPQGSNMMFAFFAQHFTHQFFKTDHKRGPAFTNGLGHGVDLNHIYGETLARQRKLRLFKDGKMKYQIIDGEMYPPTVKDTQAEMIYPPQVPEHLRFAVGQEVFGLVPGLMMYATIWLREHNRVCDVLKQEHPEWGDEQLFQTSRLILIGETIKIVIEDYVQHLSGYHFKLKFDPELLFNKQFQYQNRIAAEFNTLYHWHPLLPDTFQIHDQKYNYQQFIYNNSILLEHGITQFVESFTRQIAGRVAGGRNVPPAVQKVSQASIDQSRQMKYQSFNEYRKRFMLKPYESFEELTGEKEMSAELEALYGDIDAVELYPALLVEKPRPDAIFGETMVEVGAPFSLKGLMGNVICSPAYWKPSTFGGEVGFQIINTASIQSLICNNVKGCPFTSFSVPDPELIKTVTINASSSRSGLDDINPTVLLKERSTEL
Description: Whole cell assays for COX-2 and COX-1 using CHO transfected cell lines
Chinese hamster ovary (CHO) cell lines which have been stably transfected with an eukaryotic expression vector pCDNAIII containing either the human COX-1 or COX-2 cDNA's are used for the assay. These cell lines are referred to as CHO [hCOX-1] and CHO [hCOX-2], respectively. For cyclooxygenase assays, CHO[hCOX-1] cells from suspension cultures and CHO[hCOX-2] cells prepared by trypsinization of adherent cultures are harvested by centrifugation (300 x g, 10 min) and washed once in HBSS containing 15 mM HEPES, pH 7.4, and resuspended in HBSS, 15 mM HEPES, pH 7.4, at a cell concentration of 1.5×10^6 cells/ml. Drugs to be tested are dissolved in DMSO to 66.7-fold the highest test drug concentration. Compounds are typically tested at 8 concentrations in duplicate using serial 3-fold serial dilutions in DMSO of the highest drug concentration. Cells (0.3×10^6 cells in 200 μl) are preincubated with 3 μl of the test drug or DMSO vehicle for 15 min at 37° C. Working solutions of peroxide-free AA (5.5 μM and 110 μM AA for the CHO [hCOX-1] and CHO [COX-2] assays, respectively) are prepared by a 10-fold dilution of a concentrated AA solution in ethanol into HBSS containing 15 mM HEPES, pH 7.4. Cells are then challenged in the presence or absence of drug with the AA/HBSS solution to yield a final concentration of 0.5 μM AA in the CHO[hCOX-1] assay and a final concentration of 10 μM AA in the CHO[hCOX-2] assay. The reaction is terminated by the addition of 10 μl 1 N HCl followed by neutralization with 20 μl of 0.5 N NaOH. The samples are centrifuged at 300 x g at 4° C. for 10 min, and an aliquot of the clarified supernatant is appropriately diluted for the determination of PGE2 levels using an enzyme-linked immunoassay for PGE2 (Correlate PGE2 enzyme immunoassay kit, Assay Designs, Inc.). Cyclooxygenase activity in the absence of test compounds is determined as the difference in PGE2 levels of cells challenged with arachidonic acid versus the PGE2 levels in cells mock-challenged with ethanol vehicle. Inhibition of PGE2 synthesis by test compounds is calculated as a percentage of the activity in the presence of drug versus the activity in the positive control samples.
(§1) Compounds of the present invention are inhibitors of COX-2 and are thereby useful in the treatment of COX-2 mediated diseases as enumerated above. The activities of the compounds against cyclooxygenase may be seen in the representative results shown below. In the assay, inhibition is determined by measuring the amount of prostaglandin E2 (PGE2) synthesized in the presence of arachidonic acid, COX-1 or COX-2 and a putative inhibitor. The IC50 values represent the concentration of putative inhibitor required to lower PGE2 synthesis to 50% of that obtained as compared to the uninhibited control.

COX-1 = COX-1 (Homo sapiens, UniProt P23219); assay: Assay of COX-1 activity from U937 cell microsomes; format: biochemical; set-up: Assay of COX-1 Activity from U937 cell microsomes; endogenous in cells; host or cells: U937 cells, 100,000 x g microsomal fraction; conditions: read-out: U937 Cox-1 (IC50, inhibition of PGE2 production)
Description: Assay of COX-1 Activity from U937 cell microsomes
U 937 cells are pelleted by centrifugation at 500 x g for 5 min and washed once with phosphate-buffered saline and repelleted. Cells are resuspended in homogenization buffer consisting of 0.1 M Tris-HCl, pH 7.4, 10 mM EDTA, 2 μg/ml leupeptin, 2 μg/ml soybean trypsin inhibitor, 2 μg/ml aprotinin and 1 mM phenyl methyl sulfonyl fluoride. The cell suspension is sonicated 4 times for 10 sec and is centrifuged at 10,000 x g for 10 min at 4° C. The supernatant is centrifuged at 100,000 x g for 1 hr at 4° C. The 100,000 x g microsomal pellet is resuspended in 0.1 M Tris-HCl, pH 7.4, 10 mM EDTA to approximately 7 mg protein/mil and stored at -80° C.
Microsomal preparations are thawed immediately prior to use, subjected to a brief sonication, and then diluted to a protein concentration of 125 μg/ml in 0.1 M Tris-HCl buffer, pH 7.4 containing 10 mM EDTA, 0.5 mM phenol, 1 mM reduced glutathione and 1 μM hematin. Assays are performed in duplicate in a final volume of 250 μl. Initially, 5 μl of DMSO vehicle or drug in DMSO are added to 20 μl of 0.1 M Tris-HCl buffer, pH 7.4 containing 10 mM EDTA in wells of a 96-deepwell polypropylene titre plate. 200 μl of the microsomal preparation are then added and pre-incubated for 15 min at room temperature before addition of 25 μl of […] arachidonic acid in […] Tris-HCl and 10 mM EDTA, pH 7.4. Samples are incubated for 40 min at room temperature and the reaction is stopped by the addition of 25 μl of 1 N HCl. Samples are neutralized with 25 μl of 1 N NaOH prior to quantitation of PGE2 content by radioimmunoassay (Dupont-NEN or Amersham assay kits). Cyclooxygenase activity is defined as the difference between PGE2 levels in samples incubated in the presence of arachidonic acid and ethanol vehicle.
as §1

Sequence of COX-1 (P23219 24-599): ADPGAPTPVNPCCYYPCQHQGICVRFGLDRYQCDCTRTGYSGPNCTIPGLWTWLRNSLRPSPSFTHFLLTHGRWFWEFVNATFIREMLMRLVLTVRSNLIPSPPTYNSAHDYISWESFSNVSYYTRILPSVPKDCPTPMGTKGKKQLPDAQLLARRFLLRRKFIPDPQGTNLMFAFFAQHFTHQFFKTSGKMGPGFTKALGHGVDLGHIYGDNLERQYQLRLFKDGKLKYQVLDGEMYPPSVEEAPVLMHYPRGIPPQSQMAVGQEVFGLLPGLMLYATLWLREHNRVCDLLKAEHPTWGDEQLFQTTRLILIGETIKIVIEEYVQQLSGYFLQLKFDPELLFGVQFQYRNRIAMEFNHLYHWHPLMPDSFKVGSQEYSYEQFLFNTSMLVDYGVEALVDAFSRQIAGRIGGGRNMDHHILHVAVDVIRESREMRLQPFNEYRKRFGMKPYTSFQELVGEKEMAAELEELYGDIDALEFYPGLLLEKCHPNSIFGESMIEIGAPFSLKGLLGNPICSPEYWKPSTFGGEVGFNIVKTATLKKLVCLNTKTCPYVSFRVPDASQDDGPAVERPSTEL

Row | Structure (SMILES) | pIC50 (COX-2) | pIC50 (COX-1)
1 | CC[C@]1(C)OC(=O)C(c2ccc(F)cc2)=C1c1ccc(S(C)(=O)=O)cc1 [d, (5S)-5-ethyl-3-(4-fluorophenyl)-5-methyl-4-[4-(methylsulfonyl)phenyl]-2,5-dihydro-2-furanone] | 7.24 | 5.49
2 | CC[C@@]1(C)OC(=O)C(c2ccc(F)c(F)c2)=C1c1ccc(S(C)(=O)=O)cc1 [h, (5R)-3-(3,4-difluorophenyl)-5-ethyl-5-methyl-4-[4-(methylsulfonyl)phenyl] -2,5-dihydro-2-furanone] | 7.29 | 4.61
3 | CCCC1(C)OC(=O)C(c2ccc(F)cc2)=C1c1ccc(S(C)(=O)=O)cc1 (stereo not shown) [n, 3-(4-fluorophenyl)-5-methyl-4-[4-(methylsulfonyl)phenyl]-5-propyl-2,5-dihydro-2-furanone] | 6.71 | < 5.00
4 | CC[C@]1(C)OC(=O)C(c2ccc(F)c(F)c2)=C1c1ccc(S(C)(=O)=O)cc1 [i, (5S)-3-(3,4-difluorophenyl)-5-ethyl-5-methyl-4-[4-(methylsulfonyl)phenyl] -2,5-dihydro-2-furanone] | 7.38 | 4.87
5 | CCC1(CC)OC(=O)C(c2ccc(F)cc2)=C1c1ccc(S(C)(=O)=O)cc1 [u, 5,5-diethyl-3-(4-fluorophenyl)-4-[4-(methylsulfonyl)phenyl]-2,5-dihydro-2-furanone, reference compound] | < 5.30 | < 5.00

Now from value to compound:

Row | pIC50 (COX-2) | pIC50 (COX-1) | Structure (SMILES)
6 | < 5.30 | < 5.00 | CCC1(CC)OC(=O)C(c2ccccc2)=C1c1ccc(S(C)(=O)=O)cc1 [t, 5,5-diethyl-4-[4-(methylsulfonyl)phenyl]-3-phenyl-2,5-dihydro-2-furanone, reference compound]
7 | 6.16 | < 5.00 | CCCC1(C)OC(=O)C(c2cccc(F)c2)=C1c1ccc(S(C)(=O)=O)cc1 (stereo not shown) [o, 3-(3-fluorophenyl)-5-methyl-4-[4-(methylsulfonyl)phenyl]-5-propyl-2,5-dihydro-2-furanone]
8 | 7.70 | 5.21 | CC[C@@]1(C)OC(=O)C(c2ccc(F)cc2)=C1c1ccc(S(C)(=O)=O)cc1 [e, (5R)-5-ethyl-3-(4-fluorophenyl)-5-methyl-4-[4-(methylsulfonyl)phenyl]-2,5-dihydro-2-furanone]
9 | 7.66 | 5.13 | CCC1(C)OC(=O)C(c2ccc(F)cc2)=C1c1ccc(S(C)(=O)=O)cc1 (stereo not shown) [c, 5-ethyl-3-(4-fluorophenyl)-5-methyl-4-[4-(methylsulfonyl)phenyl]-2,5-dihydro-2-furanone]
10 | 7.38 | 5.24 | CC1(C)OC(=O)C(c2ccc(F)cc2)=C1c1ccc(S(C)(=O)=O)cc1 [Compound T3-1, 3-(4-fluorophenyl)-5,5-dimethyl-4-[4-(methylsulfonyl)phenyl]-2,5-dihydro-2-furanone, reference compound]
11 | 6.63 | < 5.00 | CCCC1(C)OC(=O)C(c2ccc(F)c(F)c2)=C1c1ccc(S(C)(=O)=O)cc1 (stereo not shown) [p, 3-(3,4-difluorophenyl)-5-methyl-4-[4-(methylsulfonyl)phenyl]-5-propyl-2,5-dihydro-2-furanone]
